US9629894B2, “Magnesium-containing oxytocin formulations and methods of use” (Trigemina, Inc., priority 2015, dated 2017)

How the values were obtained:
[1] = tested on: rat model of facial thermal nociception; test: Rat model of facial thermal nociception: cheek withdrawal latency to radiant heat after nasal administration; format: in vivo; settings: for analgesic effect (elevation in latency to withdrawal): 15-300 min
Method: The heat from a projector lamp was focused on the pre-shaved cheek of rats and the intensity was varied to obtain a withdrawal response with a latency of between 6.5 and 8.5 seconds. The intensity applied to achieve such latencies was recorded for each animal. Once stable/acceptable baseline values were obtained, the average latencies for each rat were calculated. After baseline cheek withdrawal latencies were determined for all rats, each rat received a single nasal administration of either normal saline, 15% magnesium chloride in water, or 1% magnesium lactate in water according to the method developed by Frey (Thorne, et al. Neuroscience., 127: 481-496 (2004)). Briefly, rats (under urethane anesthesia) were placed in a supine position with a rolled pad (2×2 gauze) inserted under the dorsal neck to extend the head back toward the supporting surface. The upper surface of the neck was kept horizontal throughout the dosing procedure to maintain the drug solution in the nasal cavity and minimize dripping down the nasopharynx. A 6 μL drop of the respective drug solution was delivered off the tip of a small pipette and presented to the nares on the left side of the rat while occluding the opposite nares. One drop was administered every 2 minutes, alternating between each nares (thus amounting to a four minute interval between doses to the same nares). Each nostril received 4 drops, totaling a combined volume of 48 μL (8 drops of 6 μL each). Drug solutions were coded in order to keep the experimenter blinded as to the substances delivered. Left cheek withdrawal latencies in response to radiant heat stimulation were then measured over the next 3 hours. Withdrawal latencies were measured prior to nasal administration and at 1, 2, and 3 hours post-treatment.
(§1) One of 4 concentrations of dibasic magnesium citrate (1:1 Mg/citrate) was applied to rats and the effects of these applications on responses to noxious thermal stimulation of the face were assessed as described above. Each rat received a single nasal administration of 3, 6, 10, or 12% magnesium citrate in water (6 rats/group) according to the method described above. Left cheek withdrawal latencies in response to radiant heat stimulation were then measured over the following 300 minutes. Withdrawal latencies were measured prior to nasal administration and at 15, 30, 45, 60, 120, 180, 240, and 300 min post-treatment.
as §1, with “3 doses” for “4 concentrations”, “oxytocin in buffered saline” for “dibasic magnesium citrate (1:1 Mg/citrate)”, “1, 4,” for “3, 6, 10,”, “8 μg oxytocin” for “12% magnesium citrate”, “aqueous solution” for “water”
Aqueous solutions containing a combination of magnesium citrate at one of 3 concentrations with oxytocin at one of 3 doses were applied nasally in rats and changes in withdrawal response latency were measured as above. Each rat received a single nasal administration of 1, 4, or 8 μg of oxytocin in aqueous solution containing 3, 6, or 12% magnesium citrate according to the method described above. Left cheek withdrawal latencies in response to radiant heat stimulation were then measured over the following 300 minutes. Withdrawal latencies were measured prior to nasal administration and at 15, 30, 45, 60, 120, 180, 240, and 300 min post-treatment.
Difference scores were generated for each time point after dosing by comparing the respective withdrawal response latency to pre-dosing (baseline) values.

[2] = tested on: rat paw inflammation model; test: Rat paw inflammation model (complete Freund's adjuvant in forepaw), force withdrawal threshold to mechanical stimulation; format: in vivo; settings: nasal, FIG. 8
Method: The analgesic effect of nasally administered oxytocin on cervical nerve-associated inflammatory pain was assessed in a rat paw inflammation model (Martin et al., Pain 1999, 82:199-205). Oxytocin was nasally administered at one of three doses (193, 385 or 768 micrograms in 48 microliters) and force withdrawal thresholds in grams were determined following mechanical stimulation of the inflamed area (forepaw), at regular intervals over the next three hours, and compared against those of vehicle (phosphate buffered saline) treated rats. Injection of complete Freund's adjuvant into the left forepaw of rats produced a robust inflammation of that paw as well as a substantial decrease in the force necessary to elicit a withdrawal response (mechanical allodynia).

[3] = tested on: head, neck and shoulder pain; test: Patient with chronic tension-type headache with head, neck and shoulder pain, oxytocin nasal sprays; format: in vivo, human
Description: A patient with chronic tension-type headache reported having intense pain in their head, neck and shoulders. The patient took 4 sprays of 7.5 IU/spray oxytocin for a dose of 30 units, at which point their headache pain was gone, but the neck and shoulder pain remained. […] Thus, a higher dose was necessary to affect neck and shoulder pain than was necessary to inhibit head pain in the same patient.

[4] = 4 sprays of 7.5 IU/spray oxytocin, dose of 30 units

Molecule: [Cl-].[Cl-].[Mg+2] [magnesium chloride]
- analgesia at 2 and 3 hours after dosing ([1]; 15% magnesium chloride in water, nasal, 2 and 3 hours): analgesia continuing
- analgesic effect compared to nasal saline treated rats ([1]; 15% magnesium chloride in water, nasal, 1 hour): strong analgesic effect

Molecule: CC(O)C(=O)[O-].CC(O)C(=O)[O-].[Mg+2] (centres unmarked) [magnesium lactate]
- analgesic effect (withdrawal latency) ([1]; 1% magnesium lactate in water, nasal, rats): mild analgesic effect
- latencies at the 2 and 3 hour time points ([1]; 1% magnesium lactate in water, nasal, rats, 2 and 3 hours): still substantially elevated
- raising response latencies (withdrawal latency to noxious heat) ([1]; 1% magnesium lactate in water, single nasal administration 48 μL, rats): approximately 1.5 s

Molecule: CC[C@H](C)[C@@H]1NC(=O)[C@H](Cc2ccc(O)cc2)NC(=O)[C@@H](N)CSSC[C@@H](C(=O)N2CCC[C@H]2C(=O)N[C@@H](CC(C)C)C(=O)NCC(N)=O)NC(=O)[C@H](CC(N)=O)NC(=O)[C@H](CCC(N)=O)NC1=O [oxytocin, Cys-Tyr-Ile-Gln-Asn-Cys-Pro-Leu-Gly]
- reversal of the mechanical allodynia resulting from inflammation ([2]; higher 2 doses, 385 or 768 micrograms in 48 microliters): statistically significant partial reversal
- increasing pain thresholds (force withdrawal threshold) ([2]; lowest dose, 193 micrograms in 48 microliters): ineffective
- withdrawal latency ([1]; 1 μg oxytocin, nasal): no increase
- analgesic effect (elevation in latency to withdrawal) ([1]; 1, 4 or 8 μg oxytocin in aqueous solution, nasal, FIG. 3): clear dose-dependent analgesic effect
- latency to withdrawal in response to noxious cheek heating ([1]; 4 and 8 μg oxytocin, nasal): robust increase in latency to withdrawal
- headache pain [3, 4]: gone
- neck and shoulder pain [3, 4]: remained
- neck and shoulder pain ([3]; additional 8-10 sprays, or a total of 60-75 IU): receded and ceased

Molecule: magnesium citrate
- analgesic effect (elevation in latency to withdrawal) ([1]; 3, 6, 10 or 12% magnesium citrate in water, nasal, FIG. 2): clear dose-dependent analgesic effect
